Reference: patent publication US10709769B2, “Use of endostatin peptides for the treatment of fibrosis” (University of Pittsburgh—Of the Commonwealth System of …, priority 2009, dated 2020)

What was measured:
[1] = test system: human primary skin fibroblasts; test: TGF-β-induced ECM production in primary skin (dermal) fibroblasts, western blot; type: cell-based; conditions: dermal fibroblasts from healthy controls, SSc or morphea patients
Method: Human primary lung and skin fibroblasts were cultured. The explanted lungs of normal organ donors, patients with SSc or IPF, and clinically involved skin of SSc patients, a morphea patient and healthy donors were used for primary fibroblast culture. Approximately 2-cm pieces of peripheral lung and skin were minced and fibroblasts were cultured in Dulbecco's modified Eagle's medium (DMEM; Mediatech, Herndon, Va.) supplemented with 10% FBS, penicillin, streptomycin, and anti-mycotic agent, as previously described (Feghali et al., Arthritis Rheum 1999; 42:1451-7). All the cells were used between passages 3-6.
(§1) Cellular lysates were obtained from cultured fibroblasts as previously described (Pilewski et al., Am J Pathol 2005; 166:399-407). […] Cellular lysates were analyzed by western blot. Signals were detected following incubation with horseradish peroxidase-conjugated secondary antibody and chemiluminescence (Perkin Elmer Life Sciences, Inc., Boston, Mass.). The intensity of individual bands with expected molecular sizes was semi-quantitatively analyzed using the image/J® software available at on the internet (/rsb.info.nih.gov/ij/index.html), and normalized to individual GAPDH intensity. […]

[2] = test system: normal lung fibroblasts; test: α-SMA levels in TGF-β-stimulated normal lung fibroblasts; type: cell-based, human; conditions: peptide following TGF-β stimulation
Text: FIGS. 1A-1F. ECM production in recombinant endostatin- and endostatin-derived peptide-treated fibroblasts in combination with TGF-β stimulation. A: FN and Col1α1 expression in human normal lung fibroblasts (NL) treated with vehicle (V), rE alone, or both with prior TGF-β stimulation. Proteins were detected western blot. GAPDH was used as a loading control for lysates. B: FN and Col1α1 expression of endostatin polypeptide-treated lung fibroblasts following TGF-β stimulation in primary pulmonary fibroblasts from a healthy control, a patient with SSc, and a patient with IPF. […] Intensity of bands was normalized to that of GAPDH and expressed as a ratio to Vehicle (V). […]
as §1

[3] = test system: lysyl oxidase (LOX); test: LOX immunohistochemistry in lung sections of bleomycin-treated mice; type: in vivo, mouse; conditions: lung sections of mice treated with bleomycin with or without E4
Text: FIG. 12. […] Lung sections of mice treated with BLM with or without E4 were used in immunohistochemistry to detect LOX. The sections shown are control IgG, phosphate buffered saline, bleomycin and bleomycin followed by treatment with E4.
The results also evidenced that E4 exerts its anti-fibrotic effects via multiple pathways. E4 reduces levels of lysyl oxidase (LOX), and enzyme responsible for the cross-linking of collagen, elastin, and other extracellular matrix (ECM) molecules and thus the stabilization of the ECM.

[4] = test system: human skin explants; test: Ex vivo human skin fibrosis organ culture, dermal thickness; type: cell-based
Method: Human abdominal skin was obtained from corrective plastic surgery. As previously described (Yasuoka et al., The Open Rheumatol J 2008; 2:17-22), subcutaneous fat tissue was removed uniformly and skin tissue was cut into 1.5 cm×1.5 cm sections. The following were injected intradermally in a total volume of 100 μl 1×PBS: rE alone (1-10 μg/ml), endostatin peptides alone (10 μg/ml), rE or endostatin peptides (1-20 μg/ml) in combination with TGF-β (10 ng/ml), and TGF-β alone (10 ng/ml). In some experiments, human skin was first injected with TGF-β for 48 h followed by recombinant endostain (rE) administration in the same injection site as TGF-β. Explants containing complete epidermal and dermal layers were cultured in an air liquid interface with the epidermal and keratin layers side up and exposed to air. The culture medium was replaced every other day. After 1 or 2 weeks, skin tissue corresponding to an area with 8-mm diameter centered around the injection site was harvested using disposable 8-mm Acu Punch® (Acuderm inc., Lauderdale, Fla.). Skin tissue was fixed in 10% formalin prior to embedding in paraffin.
Six μm sections of paraffin-embedded human and mouse skin tissues were stained with hematoxylin and eosin (H&E). In some experiments, sections were stained with Masson trichrome which identifies collagens. Images were taken on a Nikon Eclipse 800 microscope. The thickness of the dermis was measured in 6 random fields of each section using the image/J® software. Data are shown in arbitrary units.

[5] = test system: Egr-1; test: Egr-1 western blot in primary human lung fibroblasts; type: cell-based; conditions: TGFβ followed by E4 after 60 minutes, harvested after 24 hours
Method: FIG. 16. E-4 reduces fibrosis in vitro by reducing levels of the master transcription factor Egr-1 in primary human lung fibroblasts. Reduction of Egr-1 levels parallels that of collagen, SMA, and fibronectin. Lane 1: vehicle (DMSO); Lane 2: E4; Lane 3: TGFβ, Lane 4 TGFβ followed by E4 after 60 minutes. The samples were harvested after 24 hours.
E4 also promotes the degradation of ECM components via induction and activation of matrix metalloprotease (MMP-2), an enzyme that degrades several ECM molecules including fibronectin and native and denatured collagens (FIG. 14). In addition, E4 increases levels of inhibitor of differentiation (ID)-1, a transcription factor that inhibits TGF-β effects (see FIG. 15). It was determined in a Western bloat analysis that E4 reduces the levels of the master switch transcription factor, Egr-1 (see FIG. 16) in primary human lung fibroblasts, treated and harvested after 24 hours. The reduction of Egr-1 levels parallels a reduction in collagen, SMA and fibronectin. Egr-1 is known to mediate the effects of several fibrotic agents (including TGF-β and bleomycin).

For “H-^133SYCETWRTEAPSATGQASSLLGGRLLGQSAASCHHAYIVLCIENSFMT^180-CONH2 (H-SYCETWRTEAPSATGQASSLLGGRLLGQSAASCHHAYIVLCIENSFMT-NH2; cysteine pairing not given here; UniProt P39060 1704-1751, looked up, fragment) [E4, amino acids 133-180 of human endostatin; differs from E3 by the presence of a carboxy-terminal amide]”, the “TGF-β-induced ECM production (FN, Col1α1)” value [1] was “reduced”, the “TGF-β-induced α-SMA levels” value [2] was “decreased” and the “levels of lysyl oxidase (LOX)” value [3] was “reduces”. The “TGF-β-induced skin fibrosis (dermal thickness), dose response” value ([4]; 1, 5, 10, 20 μg/ml with TGF-β 10 ng/ml, effect at 5-20 μg/ml) was “clearly ameliorated”, the “dermal thickness, baseline effect” value ([4]; injected alone without TGF-β, rE 1, 5, 10 μg/ml, peptides 10 μg/ml) was “tendency towards reduction” and the “development of fibrosis as measured by dermal thickness” value ([4]; peptides 10 μg/ml with TGF-β 10 ng/ml, vs TGF-β alone) was “significantly abolished”. The “levels of Egr-1” value [5] was “reduces”.
